A short description of this series: Pharmacokinetic evaluation in rats (IV, PO). In kind it is in vivo, Sprague-Dawley strain rats. The note with it: Sprague-Dawley, plasma, Rat. From the text: Experimental Purpose: To evaluate the druggability of the compounds by measuring its pharmacokinetic properties in different animal species.
Experimental materials: CD-1 mice, Sprague-Dawley strain rats, beagle dogs, and crab-eating macaques.
Drug preparation: An appropriate amount of sample was weighed and then prepared into a clear or suspended solution.
Experimental procedure: The animal pharmacokinetic characteristics after intravenous injection and oral administration of the compound were tested using a standard protocol. The candidate compound was prepared as a clear solution (for intravenous injection) or a homogeneous suspension (for oral administration) during the experiment and administered to the animals as a single dose. Whole blood samples were collected at 0.083, 0.25, 0.5, 1, 2, 4, 8, and 24 hours, centrifuged at 3200 g for 10 minutes to separate the supernatant to obtain plasma samples. The plasma concentration was quantitatively analyzed by LC-MS/MS analysis method and pharmacokinetic parameters were calculated, such as peak concentration, peak time, clearance rate, half-life, area under the drug-time curve, etc.

Molecules are shown by their SMILES.

What is called AUC is the area under the concentration-time curve, a measure of exposure. For orientation: half-life means the time in which the quantity being followed falls by half. The low end stands for fast loss, the high end for slow loss. By Cmax is commonly meant the peak of the concentration-time curve. As a reminder, the Tmax is the time at which the peak concentration occurs. For orientation: bioavailability means dose-corrected exposure relative to a reference, in per cent. High values mean much systemic uptake, low ones little systemic uptake.

For `Nc1ccc(C#CCc2ccc(COc3ccccn3)cc2)cn1` [WX004], under “3 mg/kg, IV, 3 mpk”, the AUC came to 22 µM·h, the Vd stood at 1.8 L/kg, the clearance worked out at 7 mL/min/kg and the half-life was 4 h. Moreover, where the note is “30 mg/kg, PO, 30 mpk”, the AUC was determined as 95 µM·h, the Cmax turned out to be 10 µM, the Tmax was determined as 1.5 h and the bioavailability was found to be 45%.

For the origin of these results see patent US12492169B2, “Aminopyridine compound and application thereof” (priority 2020, dated 2025).
